pIC50: −log10 of the molar value.
How the values were obtained:
RBP4 = RBP4 (Homo sapiens (Human), UniProt P02753); assay: Scintillation proximity RBP4 binding assay (SPA); conditions: 10 nM 3H-Retinol, 50 nM biotinylated RBP4
Experimental: Scintillation Proximity RBP4 Binding Assay
Untagged human RBP4 purified from urine of tubular proteinuria patients was purchased from Fitzgerald Industries International. It was biotinylated using the EZ-Link Sulfo-NHS-LC-Biotinylation kit from Pierce following the manufacturer's recommendations. Binding experiments were performed in 96-well plates (OptiPlate, PerkinElmer) in a final assay volume of 100 μl per well in SPA buffer (1×PBS, pH 7.4, 1 mM EDTA, 0.1% BSA, 0.5% CHAPS). The reaction mix contained 10 nM ^3H-Retinol (48.7 Ci/mmol; PerkinElmer), 0.3 mg/well Streptavidin-PVT beads, 50 nM biotinylated RBP4 and a test compound. Nonspecific binding was determined in the presence of 20 μM of unlabeled retinol.
The reaction mix was assembled in the dark under dim red light. The plates were sealed with clear tape (TopSeal-A: 96-well microplate, PerkinElmer), wrapped in the aluminum foil, and allowed to equilibrate 6 hours at room temperature followed by overnight incubation at +4° C. Radiocounts were measured using a TopCount NXT counter (Packard Instrument Company).

RBP4-TTR interaction = RBP4-TTR interaction (Homo sapiens (Human), UniProt P02753); assay: TR-FRET (HTRF) assay for retinol-induced RBP4-TTR interaction; assay type: biochemical; conditions: in the presence of 1 μM retinol; read-out: HTRF assay for antagonists of RBP4-TTR interaction: IC50
Excerpt: TR-FRET Assay for Retinol-Induced RBP4-TTR Interaction
Binding of a desired RBP4 antagonist displaces retinol and induces hindrance for RBP4-TTR interaction resulting in the decreased FRET signal (FIG. 7). Bacterially expressed MBP-RBP4 and untagged TTR were used in this assay. […] Following cell lysis, recombinant RBP4 was purified from the soluble fraction using the ACTA FPLC system (GE Healthcare) equipped with the 5-ml the MBP Trap HP column. Human untagged TTR was purchased from Calbiochem. Untagged TTR was labeled directly with Eu^3+ Cryptate-NHS using the HTRF Cryptate Labeling kit from CisBio following the manufacturer's recommendations. HTRF assay was performed in white low volume 384 well plates (Greiner-Bio) in a final assay volume of 16 μl per well. The reaction buffer contained 10 mM Tris-HCl pH 7.5, 1 mM DTT, 0.05% NP-40, 0.05% Prionex, 6% glycerol, and 400 mM KF. […] Titration of test compounds in this assay was conducted in the presence of 1 μM retinol. All reactions were assembled in the dark under dim red light and incubated overnight at +4° C. wrapped in aluminum foil. TR-FRET signal was measured in the SpectraMax M5e Multimode Plate Reader (Molecular Device). […] The TR-FRET signal was expressed as the ratio of fluorescence intensity: Flu665/Flu620×10,000.

With COC(=O)N1CCc2[nH]nc(C(=O)N3CCC(c4cccc(F)c4C(F)(F)F)CC3)c2C1 [Compound 68] as the compound, how does the pIC50 (RBP4) read?
The pIC50 was > 8.86.

What about the pIC50 (RBP4-TTR interaction) of the same compound?
The pIC50 was 7.44.
